Legend:
rabbit LDL = assay: Amount of thiobarbituric acid reactive substances (TBARS) formed on Cu2+ oxidation of LDL; type: biochemical; conditions: 5 µM of Cu²⁺ added to rabbit LDL, followed by heating
Protocol: (§1) The biological properties of the compounds as shown hereinafter were examined by the following methods. • (1) The amount of thiobarbituric acid reactive substances: 5 µM of Cu²⁺ was added to rabbit LDL, prepared by the method reported by Havel et al., followed by heating. Then the antioxidative effect of each compound was examined by using the thiobarbituric acid reactive substances (TBARS) thus formed as the guidance. […] 0.5 ml of an n-butanol solution containing 0.2 µM of MCLA and 10 mM of linoleic acid was introduced into a vial for luminescence analysis and the luminescence due to autoxidation was measured in a thermostat at 37°C. […] To the obtained plasma, were added EDTA-NaN₃ (a 5% solution of pH 7.4) and a benzamidine solution (60 mg/ml) respectively in amounts of 0.8 ml and 0.5 ml per 100 ml of the plasma. Then rabbit or human LDL (1.019 < d < 1.063) was prepared by ultracentrifugation in accordance with the method of Havel et al.*. After performing the ultracentifugation again, the LDL was washed and concentrated. Then it was dialyzed against a 150 mM NaCl - 2 mM Na₂HPO₄ solution at 4°C and KBr was removed. The protein content was determined by Lowry method** and then the LDL was subjected to the subsequent procedure. (Measurement of electrophoretic mobility in agarose gel) 10 µM of Cu²⁺ and a specimen were added to an LDL-containing solution (3.00 µg protein/ml). After incubating at 37°C for approximately 24 hours, a portion (1 µl) thereof was applied onto an agarose gel film (Universal Film, manufactured by Corning Co.) and then subjected to electrophoresis (Agarose Gel Electrophoresis System for Lipoprotein, manufactured by Corning Co.). Thus the mobility was measured by staining lipids with Fat Red 7B. […] After 3 days, peritoneal macrophages were collected from the mouse and incubated in an RPMI 1640 medium containing 10% of FBS. The macrophages were used in the • examination on the next day.

rabbit or human LDL = assay: Electrophoretic mobility in agarose gel of LDL oxidised with Cu2+; type: biochemical; conditions: 10 µM of Cu²⁺, 37°C approximately 24 hours, expressed by regarding the mobility of LDL as 1.00 (Control 1.61)
Protocol: as §1

## COc1cc(NCc2ccccc2)cc(OC)c1OC [Compound 1, N-benzyl-3,4,5-trimethoxyaniline]
Rabbit LDL; Compound conc. 10^-5 M, 10 µM
  Formed TBARS (%): 33%
Rabbit LDL; Compound conc. 10^-6 M, 1 µM
  Formed TBARS (%): 49%
Rabbit or human LDL; Compound conc. 10 x 10⁻⁶ M
  Mobility: 1.17

## CC(C)=CCC/C(C)=C/CCC(C)Nc1ccc(-c2cc(C(C)(C)C)c(O)c(C(C)(C)C)c2)cc1 (stereo not drawn) [Compound 188, 4-[4'-[(trans-1,5,9-trimethyl-4,8-decadienyl)amino]phenyl]2,6-di-tert-butylphenol]
Rabbit or human LDL; Compound conc. 10 x 10⁻⁶ M
  Mobility: 1.15

## Oc1ccc(-c2onc3ccc(Cl)cc23)cc1O [Compound 205, 3-(3',4'-dihydroxyphenyl)-5-chlorobenzoiso-oxazole]
Rabbit or human LDL; Compound conc. 10 x 10⁻⁶ M
  Mobility: 1.00

## CC(C)=CCC/C(C)=C\CC/C(C)=C/Cn1cnc2c1C(=O)C(C)=C(C)C2=O [Compound 206, 5,6-dimethyl-1-[(2E,6Z)-3,7,11-trimethyldodeca-2,6,10-trienyl]-4,7-benzimidazoledione]
Rabbit or human LDL; Compound conc. 100 x 10⁻⁶ M
  Mobility: 1.00

## O=C(Nc1ccc(C(=O)c2ccccc2)cc1)c1ccc(O)c(O)c1 [Compound 194]
Rabbit or human LDL; Compound conc. 10 x 10⁻⁶ M
  Mobility: 1.00

## COc1cc(NC/C=C(\C)CCC=C(C)C)cc(OC)c1OC [Compound 118]
Rabbit LDL; Compound conc. 10^-5 M, 10 µM
  Formed TBARS (%): 37%
Rabbit LDL; Compound conc. 10^-6 M, 1 µM
  Formed TBARS (%): 56%
Rabbit or human LDL; Compound conc. 10 x 10⁻⁶ M
  Mobility: 1.17

## CC(C)(C)c1cc(CNCc2ccccc2)cc(C(C)(C)C)c1O [Compound 185, N-benzyl-3,5-di-tert-butyl-4-hydroxybenzylamine]
Rabbit or human LDL; Compound conc. 10 x 10⁻⁶ M
  Mobility: 1.15

## O=C(c1ccc(O)c(O)c1)N1CCN(C(c2ccccc2)c2ccccc2)CC1 [Compound 197]
Rabbit or human LDL; Compound conc. 10 x 10⁻⁶ M
  Mobility: 1.00

## COc1cc(NCc2ccc(OC/C=C(\C)CCC=C(C)C)cc2)cc(OC)c1OC [Compound 47]
Rabbit LDL; Compound conc. 10^-5 M, 10 µM
  Formed TBARS (%): 17%
Rabbit LDL; Compound conc. 10^-6 M, 1 µM
  Formed TBARS (%): 76%

## COc1cc(NC(CCc2ccccc2)C(C)C)cc(OC)c1OC (stereo not drawn) [Compound 83]
Rabbit LDL; Compound conc. 10^-5 M, 10 µM
  Formed TBARS (%): 15%
Rabbit LDL; Compound conc. 10^-6 M, 1 µM
  Formed TBARS (%): 28%

## COc1cc(NCC2CCCC2)cc(OC)c1OC [Compound 102]
Rabbit LDL; Compound conc. 10^-5 M, 10 µM
  Formed TBARS (%): 15%
Rabbit LDL; Compound conc. 10^-6 M, 1 µM
  Formed TBARS (%): 27%

## COc1cc(NCCCc2ccccc2)cc(OC)c1OC [Compound 70]
Rabbit LDL; Compound conc. 10^-5 M, 10 µM
  Formed TBARS (%): 18%
Rabbit LDL; Compound conc. 10^-6 M, 1 µM
  Formed TBARS (%): 25%

## COc1cc(NCc2ccc(OC/C=C(\C)CC/C=C(\C)CCC=C(C)C)cc2)cc(OC)c1OC [Compound 49]
Rabbit LDL; Compound conc. 10^-5 M, 10 µM
  Formed TBARS (%): 39%
Rabbit LDL; Compound conc. 10^-6 M, 1 µM
  Formed TBARS (%): 78%

## COc1cc(NC2CCCC3CCCCC32)cc(OC)c1OC (stereo not drawn) [Compound 109]
Rabbit LDL; Compound conc. 10^-5 M, 10 µM
  Formed TBARS (%): 10%
Rabbit LDL; Compound conc. 10^-6 M, 1 µM
  Formed TBARS (%): 20%

— EP0515684A1, “INHIBITOR OF DENATURED LDL FORMATION” (Chugai Seiyaku Kabushiki Kaisha, priority 1990, dated 1991)
